Data as given in publication PMC9963684, “Meroterpenoids with Immunosuppressive Activity from Edible Fungus Craterellus odoratus” (Molecules, 2023).
In brackets after ≈: the same amount, converted by molar mass. Peptide text beside a SMILES is read from it. * marks the point of attachment. Cbz = O=C(OCc1ccccc1)*

Legend:
[1] = Cytotoxicity assay (CCK-8) on spleen cells; type: cell-based; settings: female, fresh spleen cells (splenic lymphocytes), BALB/c mouse spleen cells
Experimental: (§1) Female BALB/c mice were sacrificed by cervical dislocation, and the spleens were removed aseptically. Mononuclear cell suspensions were prepared after cell debris and clumps were removed. Erythrocytes were depleted with ammonium chloride buffer solution. Lymphocytes were washed and resuspended in RPMI-1640 medium supplemented with 10% FBS, penicillin (100 U/mL), and streptomycin ([…]).
Cytotoxicity was tested with Cell Counting Kit-8 (CCK-8) assay. Briefly, fresh spleen cells were gained from female BALB/c mice (18–20 g). Spleen cells (1 ×10^6 cells) were seeded in triplicate in 96-well flat plates, then cultured at 37 °C for 48 h in 96-well flat plates in the presence or absence of various concentrations of compounds, as well as in a humidified and 5% CO2-containing incubator. A certain amount of CCK-8 was added to each well at the final 8–10 h of culture. At the end of culturing, we measured the OD values with a microplate reader (Bio-Rad 650, Hercules, CA, USA) at 450 nm. […] The cytotoxicity of each compound was expressed as the concentration of compound that reduced cell viability to 50% (CC50).

[2] = system: LPS-induced B-cell proliferation (spleen cells); experiment: LPS-induced B-cell proliferation ([3H]-thymidine uptake); type: cell-based; settings: Mus musculus, spleen cells stimulated with 10 µg/mL LPS
Experimental: as §1
(§2) Fresh spleen cells were obtained from female BALB/c mice (18–20 g). The 5 × 10^5 spleen cells were cultured at the same conditions as those mentioned above. The cultures, in the presence or absence of various concentrations of compounds, were stimulated with 5 µg/mL of concanavalin A (ConA) or 10 µg/mL of lipopolysaccharide (LPS) to induce T-cells’ or B-cells’ proliferative responses, respectively. Proliferation was assessed in terms of uptake of [^3H]-thymidine during 8 h of pulsing with 25 µL/well of [^3H]-thymidine, and then cells were harvested onto glass fiber filters. The incorporated radioactivity was counted using a Beta scintillation counter (MicroBeta Trilux; PerkinElmer Life Sciences, Waltham, MA, USA). Cells treated without any stimuli were used as a negative control. The immunosuppressive activity of each compound was expressed as the concentration of compound that inhibited ConA-induced T-cell proliferation or LPS-induced B-cell proliferation to 50% (IC50) of the control value. […]

Staphylococcus aureus = system: Staphylococcus aureus; parameters: method as in ref 17 =  L.V. Levchenko S.V. O’Neill D.P. Advances in methods and algorithms in a modern quantum chemistry program; settings: cited from earlier work
[3] = system: ConA-induced T-cell proliferation (spleen cells); experiment: ConA-induced T-cell proliferation ([3H]-thymidine uptake); type: cell-based; settings: Mus musculus, spleen cells stimulated with 5 µg/mL ConA
Experimental: as §1, §2

human 11β-HSD2 = system: human 11β-HSD2; parameters: method as in PMID 19879607; settings: cited from earlier work
Escherichia coli = system: Escherichia coli; parameters: L.V. Levchenko S.V. O’Neill D.P. Advances in methods and algorithms in a modern quantum chemistry program; settings: cited from earlier work
Micrococcus luteus = system: Micrococcus luteus; parameters: L.V. Levchenko S.V. O’Neill D.P. Advances in methods and algorithms in a modern quantum chemistry program; settings: cited from earlier work
Bacillus cereus = system: Bacillus cereus; parameters: method as in ref 17 = [17];  L.V. Levchenko S.V. O’Neill D.P. Advances in methods and algorithms in a modern quantum chemistry program; settings: cited from earlier work
[4] = system: human 11β-hydroxysteroid dehydrogenases (11β-HSD1); parameters: method as in PMID 19879607; settings: cited from earlier work
[5] = system: human embryonic kidney 293 cell; parameters: method as in PMID 26669092; settings: read-out: IC50 against human embryonic kidney 293 cell; cited from earlier work
[6] = system: NO production in LPS-activated RAW264.7 macrophages; experiment: Nitric oxide production in LPS-activated RAW264.7 macrophages; type: cell-based, murine; settings: Mus musculus, positive control, 1 μg/mL LPS, 18 h
Experimental: Murine monocytic RAW264.7 macrophages were dispensed into 96-well plates (2 × 10^5 cells/well) containing RPMI-1640 medium (HyClone) with 10% FBS under a humidified atmosphere with 5% CO2 at 37 °C. After 24 h of preincubation, cells were treated with serial dilutions of the test compounds, up to a maximum concentration of 40 μM, in the presence of 1 μg/mL LPS for 18 h. The compounds were dissolved in DMSO and further diluted in the medium to produce different concentrations. NO production in each well was assessed by adding 100 μL of Griess reagent (reagent A and reagent B, Sigma, St. Louis, MO, USA) to 100 μL of each supernatant from the LPS-treated (Sigma) or LPS- and compound-treated cells in triplicate. After a 5 min incubation, the absorbance of samples was measured at 570 nm with a 2104 Envision multilabel plate reader (Perkin-Elmer Life Sciences, Inc., Boston, MA, USA).

CC1=CCC2C(C)(C)CCCC2(C)C1CC12OC1C(=O)C(Cc1c(O)cc(CC(C)O)oc1=O)=CC2O (stereo not shown) [Compound 1, craterodoratin T]
CC50 at 48 h [1]: > 40 µM
IC50 [2]: 5.52 ± 0.452 µM

CC1=CC[C@H]2C(C)(C)CCC[C@]2(C)[C@H]1C[C@@]12O[C@@H]1[C@H](O)C(CO)=C[C@H]2O [Compound 3, craterellin A]
MIC against Staphylococcus aureus (Staphylococcus aureus): 6.25 µM (≈ 2.27 µg/mL)
IC50 [3]: 9.07 ± 0.644 µM
CC50 at 48 h [1]: > 40 µM
IC50 [2]: 20 ± 1.38 µM
IC50 against human 11β-HSD2 (human 11β-HSD2): 1.5 µg/mL (≈ 4.14 µM)
MIC against Escherichia coli (Escherichia coli): 6.25 µM (≈ 2.27 µg/mL)
MIC against Micrococcus luteus (Micrococcus luteus): 6.25 µM (≈ 2.27 µg/mL)
MIC against Bacillus cereus (Bacillus cereus): 3.12 µM (≈ 1.13 µg/mL)
IC50 against human 11β-HSD1 [4]: 9.1 µg/mL (≈ 25.1 µM)

CC1=CCC2C(C)(C)C(O)CCC2(C)C1CC12OC1C(O)C(CO)=CC2O (stereo not shown) [craterellin B]
IC50 against human 11β-HSD1 [4]: 3.5 µg/mL (≈ 9.25 µM)

C=C1[C@@H](O)[C@H]2O[C@@]2(C[C@H]2C(C)=CC[C@H]3C(C)(C)CCC[C@]23C)[C@H](O)[C@H]1O [craterellin C]
IC50 against human 11β-HSD2 (human 11β-HSD2): 25.4 µg/mL (≈ 70.1 µM)
IC50 against human 11β-HSD1 [4]: 14.8 µg/mL (≈ 40.8 µM)
IC50 [5]: 50.9 µM

CC(C)C[C@@H](C=O)NC(=O)[C@H](CC(C)C)NC(=O)[C@H](CC(C)C)NC(=O)OCc1ccccc1 [MG-132] (Cbz-Leu-Leu-Leu-aldehyde)
IC50 [6]: 0.2 µM
